This is an account of results in PMC6895912 (Cancers, 2019).

Where two headings read alike, the source gives them in different places.

The data set is described as follows: Plasma pharmacokinetics after single IV, IP or PO dose. The format is in vivo, male CD-1 mice. The following applies: for bioavailability: read-out: F (%) absolute bioavailability. As to the method:
These studies were conducted in male CD-1 mice (7–8 weeks old, weighing about 27–33 g) were obtained from Hylasco Bio-Technology Pvt. Ltd. (A Charles River Technology Licensee, Turkapally, India). The details are presented in the Supplementary Materials.
A generic gradient LC method with a short run times of 3.5 min for Gal and 4.5 min for VNPP414 and VNPP433-3β were developed for the analysis of Gal/analogs in plasma samples. The mobile phase flow rate was 1.0 mL/min with a split ratio of 1:1 to the ionization source. The mobile phase for Gal consisted of 10 mM ammonium acetate in water as aqueous component and 100% methanol as organic modifier. For the Gal analogs, the mobile phase consisted of 0.01% formic acid in water and 100% acetonitrile. The column and autosampler were maintained at 40°C and 15°C, respectively for all assays. The turbo ion spray source was operated with typical settings as follows: ionization mode, positive; curtain gas, 30 psi; nebulizer gas (GS1), 55 psi; heater gas (GS2), 50 (for Gal analyte) and 60 (for Gal analogs analytes) psi; nebulizer gas 55 psi; temperature, 550 °C. A summary of the ion transitions, collision energies and retention times for both the analytes (Gal, VNPP414 and VNPP433- […]
components were automatically integrated using Analyst software version 1.5.
Table S1. Optimized mass spectroscopic conditions. *IS: internal standard; **Gal had two daughter ions (m/z: 119.20 and 195.20) that were used for multiple reaction monitoring (MRM) in LC-MS/MS runs. Because we observed a poor shape peak of Gal with fragment of m/z 195.20 at lower levels (LLOQ: 1 ng/mL) in plasma samples, we used fragment m/z 119.20 for the PK study. We used fragment of m/z 195.20 when Gal was used as IS where the concentration was ~200 ng/mL. This fragment was stable throughout the study.
Analytes Parent ions Daughter ions Collision energy Declustering potentials […]
1.5. Pharmacokinetics of Gal, VNPP414 and VNPP433-3β in CD-1 Mice
Male CD-1 mice (7-8 weeks old, weighing about 27-33 g) were obtained from Hylasco Bio-Technology Pvt. Ltd (A Charles River Technology Licensee in India) were maintained in a controlled environment of about 25 °C, 50% relative humidity and a 12-h light/12-h dark cycle. The compounds were formulated in either 10% DMSO in 10% solutol in phosphate-buffered saline (PBS) for single intravenous doses (1 mg/kg) or in 40% β-cyclodextrin in saline for single intraperitoneal or oral doses (10 mg/kg). 10 ml/kg dose volume used for administrating the formulation for all the three routes (IV, IP and PO). The IV administration was performed through tail vein of mice as bolus. For IP route, the compound was dosed in intraperitoneal cavity using a 27-gauze needle. PO administration was performed through gastric gavage tube (aka feeding tube). Serial blood samples were collected from 3 mice per time-point (staggered bleeding approach was used for mice where one mice was bled maximum for three time within 24h) into vacutainers containing lithium heparin (anticoagulant) at and 24 h post dose after intraperitoneal or oral administration. In total, 81 mice were used for this study. At each time point 200 μL of blood was collected into vacutainers. Venous blood Samples were collected using retro orbital puncture method. Plasma was isolated by centrifugation at 10000 rpm for 10 min and stored frozen at -80°C until assay. Plasma pharmacokinetic parameters were calculated using the non-compartmental analysis tool of Phoenix software (Version 7, Pharsight) and were determined from individual animals in each group. The area under the plasma concentration-time curve (AUC0-t and AUCinf), elimination half-life (T1/2), clearance (CL), volume of distribution (Vd) and mean residence time (MRT) were calculated from intravenous group. The peak plasma concentration (Cmax), time to achieve peak plasma concentration (Tmax), AUC0-t and AUCinf, were […]
calculated for the IP and PO groups. Absolute oral bioavailability (%F) were calculated from the PO […]

[1] abbreviates: mouse, plasma, IP 10 mg/kg, male CD-1 mice.
Where [2] appears, read: mouse, plasma, IV 1 mg/kg, male CD-1 mice.
The mark [3] stands for this setting: mouse, plasma, PO 10 mg/kg, male CD-1 mice.
Setting [4] is: mouse, IP 10 mg/kg, male CD-1 mice, plasma.
The mark [5] stands for this setting: mouse, IV 1 mg/kg, male CD-1 mice, plasma.
[6] abbreviates: mouse, PO 10 mg/kg, male CD-1 mice, plasma.
The mark [7] stands for this setting: PO 10 mg/kg, male CD-1 mice, 10 mg/kg.
[8] abbreviates: male, CD-1, mouse, in vivo, ip, 10 mg/kg, IP 10 mg/kg, male CD-1 mice.
Setting [9] is: male, CD-1, mouse, in vivo, po, 10 mg/kg, PO 10 mg/kg, male CD-1 mice.
The mark [10] stands for this setting: mouse, in vivo, IP 10 mg/kg, male CD-1 mice, plasma.
Where [11] appears, read: mouse, in vivo, PO 10 mg/kg, male CD-1 mice, plasma.

As to `C[C@]12CC[C@H](O)CC1=CC[C@@H]1[C@@H]2CC[C@]2(C)C(n3cnc4ccccc43)=CC[C@@H]12` [Galeterone], the half-life (male, CD-1, mouse, plasma, range over IV, IP and PO routes, mice) fell in the range of 0.17 to 1.26 h; the half-life under setting [1] is 1.24 h; the half-life under setting [2] was 0.17 h; the half-life under setting [3] was 1.26 h. Besides, the bioavailability stood at 169% under setting [1] and 18.4% under setting [3]. The AUC(0-inf) was found to be 111 ng·h/mL under setting [4], 57.9 ng·h/mL under setting [5] and 969 ng·h/mL under setting [6]. The molecule further came in with a Cmax under setting [4] of 507 ng/mL and a Cmax under setting [6] of 32.8 ng/mL.

`C[C@]12CC[C@H](OCc3ccncc3)CC1=CCC1C2CC[C@]2(C)C(n3cnc4ccccc43)=CCC12` (some centres unmarked) [VNPP414]: the half-life by setting is: under setting [1], 6.25 h; under setting [2], 7.48 h; under setting [3], 4.3 h. Further, the bioavailability under setting [1] is 157% and the bioavailability under setting [3] amounted to 19.4%. The AUC(0-inf) runs as follows: under setting [4], 8600 ng·h/mL; under setting [5], 547 ng·h/mL; under setting [6], 1030 ng·h/mL. For the same molecule, the Cmax is 2170 ng/mL under setting [4] and 175 ng/mL under setting [6].

As to `C[C@]12CC[C@H](n3ccnc3)CC1=CCC1C2CC[C@]2(C)C(n3cnc4ccccc43)=CCC12` (stereo partly drawn) [VNPP433-3β], the “F (%) absolute bioavailability” value under setting [7] is 49.45%. This molecule also showed a T1/2 under setting [7] of 31.19 h. Besides, the half-life is, setting by setting: under setting [8], 22.4 h; (male, CD-1, mouse, in vivo, iv, 1 mg/kg, IV 1 mg/kg, male CD-1 mice) 14.3 h; under setting [9], 31.2 h. The bioavailability is, setting by setting: under setting [8], 123%; under setting [9], ~50%. Moreover, the AUC (male, CD-1, mouse, in vivo, 10 mg/kg oral dosing, mice) stood at 71.9 µM·h. Besides, the Cmax by setting is: (male, CD-1, mouse, in vivo, PO 10 mg/kg, plasma, converted from ng/mL) ~2000 nM; under setting [10], 2290 ng/mL; under setting [11], 706 ng/mL. The AUC(0-inf) is, setting by setting: under setting [10], 57300 ng·h/mL; (mouse, in vivo, IV 1 mg/kg, male CD-1 mice, plasma) 3470 ng·h/mL; under setting [11], 31800 ng·h/mL.
